For orientation: logD means lipophilicity at a set pH, counting ionised and neutral species.

The data set is described as follows: method code SF-HPLC, from DOI: 10.1002/jps.2600750109, PMID: 3958903. The note with it: pH 7.4.
`O=C(NCN1CCOCC1)c1ccccc1O`: the logD stood at 1.27.
For `CCOC(=O)CC(CO)C(CC)c1cncn1C` (stereo unspecified) the value was 0.73.
For `CCCCOC(=O)[C@@H](CC)[C@H](CO)Cc1cncn1C` the value was 1.73; for `CC(C)(C)C(=O)OCOc1ccccc1C(=O)NCN1CCOCC1`, 1.81; for `CCC(C(=O)OCc1ccccc1)C(CO)Cc1cncn1C` (stereo unspecified), 1.97.
For `CC[C@H](C(=O)OCc1ccccc1C)[C@H](CO)Cc1cncn1C` the value was 2.42; for `CC[C@H](C(=O)OCc1ccc(C)cc1)[C@H](CO)Cc1cncn1C`, 2.46.
For `CCC(C(=O)OC(C)c1ccccc1)C(CO)Cc1cncn1C` (stereo unspecified), the logD was determined as 2.23.
For `CC[C@H](C(=O)OCc1ccc(Cl)cc1)[C@H](CO)Cc1cncn1C` the value was 2.69.
The figure for `CCCCCCOC(=O)C(CC)C(CO)Cc1cncn1C` (stereo unspecified) is 2.71; for `CCC(C(=O)OCCc1ccccc1)C(CO)Cc1cncn1C` (stereo unspecified) it is 2.31.

The values above are taken from the SangsterLogP compilation.
